Compound | melting point [°C]
CCCCC/C=C/CC1CC(=O)N(c2cc(Cc3n[nH]c(=O)c4ccccc34)ccc2F)C1=O (stereo not shown) [Example 28, 1-[2-fluoro-5-(4-oxo-3,4-dihydrophthalazin-1-ylmethyl)phenyl]-3-oct-2-enylpyrrolidine-2,5-dione] | 138 to 141
CCC/C=C/CC1CC(=O)N(c2cc(Cc3n[nH]c(=O)c4ccccc34)ccc2F)C1=O (stereo not shown) [Example 29, 1-[2-fluoro-5-(4-oxo-3,4-dihydrophthalazin-1-ylmethyl)phenyl]-3-hex-2-enylpyrrolidine-2,5-dione] | 146 to 149
CCCCCC/C=C/CC1CC(=O)N(c2cc(Cc3n[nH]c(=O)c4ccccc34)ccc2F)C1=O (stereo not shown) [Example 30, 1-[2-Fluoro-5-(4-oxo-3,4-dihydrophthalazin-1-ylmethyl)phenyl]-3-non-2-enylpyrrolidine-2,5-dione] | 146 to 149
O=C1CC2(CCCC2)C(=O)N1c1cc(Cc2n[nH]c(=O)c3ccccc23)ccc1F [Example 32, 2-[2-fluoro-5-(4-oxo-3,4-dihydrophthalazin-1-ylmethyl)phenyl]-2-azaspiro[4.4]nonane-1,3-dione] | 215 to 220

Continued, values first:

melting point [°C] | Compound
121 to 127 | O=C(N[C@H]1CC(=O)N(c2cc(Cc3n[nH]c(=O)c4ccccc34)ccc2F)C1=O)OCc1ccccc1 [Example 35, (S)-3-benzyloxycarbonylamino-1-[2-fluoro-5-(4-oxo-3,4-dihydrophthalazin-1-ylmethyl)phenyl]pyrrolidine-2,5-dione]
131 to 135 | O=C1CC(c2ccccc2)C(=O)N1c1cc(Cc2n[nH]c(=O)c3ccccc23)ccc1Cl (stereo not shown) [Example 39, 1-[2-chloro-5-(4-oxo-3,4-dihydrophalazin-1-ylmethyl)phenyl]-3-phenylpyrrolidine-2,5-dione]
229 to 230 | O=C1C2CC2C(=O)N1c1cc(Cc2n[nH]c(=O)c3ccccc23)ccc1Cl (stereo not shown) [Example 41, 3-[2-chloro-5-(4-oxo-3,4-dihydrophthalazin-1-ylmethyl)phenyl]-3-azabicyclo[3.1.0]hexane-2,4-dione]
